Test results reported in patent publication US6284768A, “Src family SH2 domain inhibitors” (Boehringer Ingelheim Pharmaceuticals, Inc., priority 1999, dated 2001).
Read-outs that look alike come from different tables or passages of the source.

Legend:
[1] = system: Inter-leukin 2 (IL-2) production by activated Human Primary T Lymphocytes; experiment: Primary T cell assay: inhibition of IL-2 production by activated human primary CD4 positive T lymphocytes; type: cell-based; details: Homo sapiens, Table 5, mean IC50 value, CD4 positive T cells activated with anti-CD3/anti-CD28, IL-2 by ELISA, read-out: IC50 (blocking IL-2 production)
Protocol: Summary of Primary T Cell Assay.
Inhibitors of the lck SH2 domain were assayed for their ability to block Inter-leukin 2 (IL-2) production by activated Human Primary T Lymphocytes. Peripheral blood mononuclear cells were isolated from whole blood by centrifugation in ficoll-Pague partitioning medium. CD4 positive cells were purified using negative selection. […] The compounds, at the appropriate dilutions, were added, and the cells were incubated for 60 minutes at 37° C. The CD4 positive T cells were then activated by the addition of anti-CD3 (60 ng/mL), anti CD28 (500 ng/mL) and goat anti mouse IgG coated beads, and incubated overnight at 37° C. The cells were pelleted, and the supernatents assayed for IL-2 by ELISA.
As SH2 domain containing proteins are intracellular, any therapeutic agent must be able to cross biological membranes. […] These characteristics may be quantified by observing inhibition in IL-2 production in human blood CD4 positive T-lymphocytes after T cell receptor and CD28 cross-linking.

[2] = molecular target: T1, p56lck GST-SH2 (lck SH2 domain) (Homo sapiens, UniProt P06239); experiment: Receptor-ligand equilibrium binding constants by surface plasmon resonance (biosensor), lck SH2 domain
T1 construct: GST (N)

[3] = Table 1, compounds of formula (II)

T1 sequence (P06239 127-224 limits assumed): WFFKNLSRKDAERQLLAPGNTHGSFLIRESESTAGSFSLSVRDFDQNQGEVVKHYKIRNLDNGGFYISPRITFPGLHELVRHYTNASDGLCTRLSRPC

| SMILES | IC50 ([1]; CD4 positive) | Kd [2, 3] | Kd ([2]; Table 2, compounds of formula (III)) | IC50 [1] |
| --- | --- | --- | --- | --- |
| COc1ccc(Cn2ccc(C)c(NC(=O)[C@H](Cc3ccc(C(C)(C)C(=O)O)cc3)NC(=O)N(C)c3cccc4ccccc34)c2=O)cc1 [Compound 133] | 112 µM | 780 nM |  |  |
| COc1ccc(Cn2ccc(C)c(NC(=O)[C@H](Cc3ccc(C(C)(C)C(=O)O)cc3)NC(=O)Cc3ccc(NCc4ccccc4)cc3)c2=O)cc1 [Compound 130] | 181 µM | 840 nM |  |  |
| COc1ccc(C(C)n2ccc(C)c(NC(=O)C(Cc3ccc(C(C)(C)C(=O)O)cc3)NC(=O)Cc3cccc4ccccc34)c2=O)cc1 (centres unmarked) [Compound 178] | 65 µM | 680 nM |  |  |
| Cc1ccn(CCCc2ccccc2)c(=O)c1NC(=O)C(Cc1ccc(C(C)(C)C(=O)O)cc1)NC(=O)Cc1cccc2ccccc12 (centres unmarked) [Compound 182] | 64 µM | 2100 nM |  |  |
| COc1ccc(Cn2ccc(C)c(NC(=O)[C@H](Cc3ccc(C(C)(C)C(=O)O)cc3)NC(=O)Cc3ccc(NCC(C)(C)C)cc3)c2=O)cc1 [Compound 132] | 141 µM | 250 nM |  |  |
| Cc1ccn(Cc2ncc(C(F)(F)F)cc2Cl)c(=O)c1NC(=O)[C@H](Cc1ccc(C(C)(C)C(=O)O)cc1)NC(=O)Cc1ccc2ccccc2c1 [Compound 129] | 107 µM | 2800 nM |  |  |
| COc1ccc(Cn2ccc(C)c(NC(=O)[C@H](Cc3ccc(C(C)(C)C(=O)O)cc3)NC(=O)C(C)(C)c3ccc(C(C)C)cc3)c2=O)cc1 [Compound 118] | 61 µM | 610 nM |  |  |
| COc1ccc(Cn2ccc(C)c(NC(=O)C(Cc3ccc(C(C)(C)C(=O)O)cc3)NC(=O)C(C)(C)c3ccc(C(F)(F)F)cc3)c2=O)cc1 (centres unmarked) [Compound 217] | 70 µM | 1300 nM |  |  |
| COc1ccc(Cn2ccc(C)c(NC(=O)[C@H](Cc3ccc(C(C)(C)C(=O)O)cc3)NC(=O)Cc3ccc(Br)c4ccccc34)c2=O)cc1 [Compound 111] | 64 µM | 510 nM |  |  |
| Cc1ccn(CC2(c3ccccc3)CC2)c(=O)c1NC(=O)C(Cc1ccc(C(C)(C)C(=O)O)cc1)NC(=O)Cc1cccc2ccccc12 (centres unmarked) [Compound 213] | 166 µM | 2000 nM |  |  |
| CCCCCCn1ccc(C)c(NC(=O)C(Cc2ccc(C(C)(C)C(=O)O)cc2)NC(=O)Cc2c(F)c(F)c(F)c(F)c2F)c1=O (centres unmarked) [Compound 142] | 94 µM | 1300 nM |  |  |
| COc1ccc(Cn2ccc(C)c(NC(=O)C(Cc3ccc(C(C)(C)C(=O)O)cc3)NC(=O)COc3cccc4c(N(C)C)cccc34)c2=O)cc1 (centres unmarked) [Compound 175] | 108 µM | 780 nM |  |  |
| Cc1ccn(Cc2ccc3c(c2)OCO3)c(=O)c1NC(=O)C(Cc1ccc(C(C)(C)C(=O)O)cc1)NC(=O)Cc1ccc2ccccc2c1 (centres unmarked) [Compound 155] | 76 µM | 370 nM |  |  |
| COc1ccc(Cn2ccc(C)c(NC(=O)C(Cc3ccc(C(C)(C)C(=O)O)cc3)NC(=O)C(C)(C)c3ccccc3)c2=O)cc1 (centres unmarked) [Compound 180] | 82 µM | 2500 nM |  |  |
| COc1ccc(Cn2ccc(C)c(NC(=O)C(Cc3ccc(C(C)(C)C(=O)O)cc3)NC(=O)COc3cccc4ccccc34)c2=O)cc1 (centres unmarked) [Compound 174] | 67 µM | 1000 nM |  |  |
| CCC(C(=O)N[C@@H](Cc1ccc(C(C)(C)C(=O)O)cc1)C(=O)Nc1c(C)ccn(Cc2ccc(OC)cc2)c1=O)c1ccc2ccccc2c1 (some centres unmarked) [Compound 109] | 78 µM | 330 nM |  |  |
| COc1ccc(Cn2ccc(C)c(N(C)C(=O)C(Cc3ccc(C(C)(C)C(=O)O)cc3)NC(=O)Cc3ccc4ccccc4c3)c2=O)cc1 (centres unmarked) [Compound 151] | 67 µM | > 200000 nM |  |  |
| Cc1ccn(CC2(c3ccccc3)CC2)c(=O)c1NC(=O)C(Cc1ccc(C(C)(C)C(=O)O)cc1)NC(=O)Cc1ccc2ccccc2c1 (centres unmarked) [Compound 214] | 117 µM | 1200 nM |  |  |
| COc1ccc(Cn2ccc(C)c(NC(=O)[C@H](Cc3ccc(C(C)(C)C(=O)O)cc3)NC(=O)Cc3c(C)cc(C)cc3C)c2=O)cc1 [Compound 117] | 108 µM | 370 nM |  |  |
| CCCCCCn1ccc(C)c(NC(=O)C(Cc2ccc(C(C)(C)C(=O)O)cc2)NC(=O)COc2ccccc2)c1=O (centres unmarked) [Compound 205] | 136 µM | 1900 nM |  |  |
| CCCCCCCn1ccc(C)c(NC(=O)C(Cc2ccc(C(C)(C)C(=O)O)cc2)NC(=O)Cc2ccc3ccccc3c2)c1=O (centres unmarked) [Compound 138] | 64 µM | 830 nM |  |  |
| COc1ccc(Cn2ccc(C)c(NC(=O)[C@H](Cc3ccc(C(C)(C)C(=O)O)cc3)NC(=O)Cc3cccc4ccccc34)c2=O)cc1 [Compound 2, 3-[2'-(S)-(1"-Naphthylacetyl)amino-3'-[4'"-(1'"-carboxy-1'"-methyl)ethyl]benzene]propanoylamino-1-(4-methoxybenzyl)-4-methyl-2-pyridone] | 96 µM | 570 nM |  |  |
| COc1ccc(Cn2c(C)cc(C)c(NC(=O)[C@H](Cc3ccc(C(C)(C)C(=O)O)cc3)NC(=O)Cc3ccc4ccccc4c3)c2=O)cc1 [Compound 219] | 70 µM | 2200 nM |  |  |
| COc1ccc(Cn2ccc(C)c(NC(=O)[C@H](Cc3ccc(C(C)(C)C(=O)O)cc3)NC(=O)C(C)(C)c3ccc4ccccc4c3)c2=O)cc1 [Compound 107] |  |  |  | 48 µM |
| CCCCCCn1ccc(C)c(NC(=O)C(Cc2ccc(C(C)(C)C(=O)O)cc2)NC(=O)Cc2ccc(C(F)(F)F)cc2)c1=O (centres unmarked) [Compound 209] | 92 µM | 190 nM |  |  |
| CCCCCCn1ccc(C)c(NC(=O)C(Cc2ccc(C(C)(C)C(=O)O)cc2)NC(=O)Cc2ccc(OC)cc2)c1=O (centres unmarked) [Compound 208] | 279 µM | 800 nM |  |  |
| CCc1ccc(Cn2ccc(C)c(NC(=O)C(Cc3ccc(C(C)(C)C(=O)O)cc3)NC(=O)Cc3ccc4ccccc4c3)c2=O)cc1 (centres unmarked) [Compound 150] | 60 µM | 4600 nM |  |  |
| COc1ccc(Cn2ccc(C)c(NC(=O)[C@H](Cc3ccc(C(C)(C)C(=O)O)cc3)NC(=O)Cc3ccc(C(C)C)cc3)c2=O)cc1 [Compound 94] | 156 µM | 210 nM |  |  |

More lines, main results first:

| IC50 ([1]; CD4 positive) | Kd [2, 3] | Kd ([2]; Table 2, compounds of formula (III)) | SMILES | IC50 [1] |
| --- | --- | --- | --- | --- |
| 29 µM | > 15000 nM |  | CCC(CC)(C(=O)NC(Cc1ccc(C2(C(=O)O)CCCC2)cc1)C(=O)Nc1c(C)ccn(Cc2ccc(OC)cc2)c1=O)c1ccc2ccccc2c1 (centres unmarked) [Compound 125] |  |
| 60 µM |  | 530 nM | COc1ccc(Cn2ncc(C)c(NC(=O)C(Cc3ccc(C(C)(C)C(=O)O)cc3)NC(=O)Cc3ccc4ccccc4c3)c2=O)cc1 (racemic) [Compound 242, 4-[2'-(R,S)-(2""-Naphthylacetyl)amino-3'-[4"-(1'"-carboxy-1'"-methyl)ethyl]benzene]propanoylamino-2-(4-methoxybenzyl)-5-methyl-3-pyridazinone] |  |
| 31 µM | 170 nM |  | COc1ccc(Cn2cc(Br)c(C)c(NC(=O)[C@H](Cc3ccc(C(C)(C)C(=O)O)cc3)NC(=O)Cc3ccc4ccccc4c3)c2=O)cc1 [Compound 220, 3-[2'-(S)-(2""-Naphthylacetyl)amino-3'-[4"-(1'"-carboxy-1'"-methyl)ethyl]benzene]propanoylamino-5-bromo-1-(4-methoxybenzyl)-4-methyl-2-pyridone] |  |
| 57 µM | < 8000 nM |  | CCCCCCn1cc(-c2ccccc2)c(C)c(NC(=O)C(Cc2ccc(C(C)(C)C(=O)O)cc2)NC(=O)Cc2ccc3ccccc3c2)c1=O (centres unmarked) [Compound 231] |  |
| 52 µM | 1400 nM |  | COc1ccc(Cn2ccc(C)c(NC(=O)[C@H](Cc3ccc(C(C)(C)C(=O)O)cc3)NC(=O)[C@@H](C)c3ccc(CC(C)C)cc3)c2=O)cc1 [Compound 127] |  |
| 52 µM | 180 nM |  | COc1ccc(Cn2ccc(C)c(NC(=O)C(Cc3ccc(C(C)(C)C(=O)O)cc3)NC(=O)Cc3c(OC)ccc4ccccc34)c2=O)cc1 (centres unmarked) [Compound 187] |  |
| 35 µM | 840 nM |  | CCC(CC)(C(=O)N[C@@H](Cc1ccc(C(C)(C)C(=O)O)cc1)C(=O)Nc1c(C)ccn(Cc2ccc(OC)cc2)c1=O)c1ccc2ccccc2c1 [Compound 123] |  |
| 53 µM | 1300 nM |  | COc1ccc(C(C)n2ccc(C)c(NC(=O)C(Cc3ccc(C(C)(C)C(=O)O)cc3)NC(=O)C(C)(C)c3ccc4ccccc4c3)c2=O)cc1 (centres unmarked) [Compound 184] |  |
| 42 µM | 1500 nM |  | COc1ccc(Cn2ccc(C)c(NC(=O)[C@H](Cc3ccc(C(C)(C)C(=O)O)cc3)NC(=O)C(C)(C)c3ccc(CC(C)C)cc3)c2=O)cc1 [Compound 124] |  |
| 56 µM | 840 nM |  | Cc1ccn(CCCCC(C)C)c(=O)c1NC(=O)C(Cc1ccc(C(C)(C)C(=O)O)cc1)NC(=O)Cc1ccc2ccccc2c1 (centres unmarked) [Compound 145] |  |
| 49 µM | 8800 nM |  | CCOc1ccc(Cn2ccc(C)c(NC(=O)C(Cc3ccc(C(C)(C)C(=O)O)cc3)NC(=O)C(C)(C)c3cccc4ccccc34)c2=O)cc1 (centres unmarked) [Compound 141] |  |
| 29 µM | 5400 nM |  | Cc1ccn(CC2CCCCC2)c(=O)c1NC(=O)C(Cc1ccc(C(C)(C)C(=O)O)cc1)NC(=O)C(C)(C)c1ccc2ccccc2c1 (centres unmarked) [Compound 196] |  |
| 41 µM | 780 nM |  | COc1ccc(Cn2ccc(C)c(NC(=O)C(Cc3ccc(C(C)(C)C(=O)O)cc3)NC(=O)C(C)(C)c3ccc(C(C)(C)C)cc3)c2=O)cc1 (centres unmarked) [Compound 186] |  |
| 39 µM | 680 nM |  | CCC(C(=O)N[C@@H](Cc1ccc(C(C)(C)C(=O)O)cc1)C(=O)Nc1c(C)ccn(Cc2ccc(OC)cc2)c1=O)c1cccc2ccccc12 (some centres unmarked) [Compound 126] |  |
